Test system: oral cavity cancer cell line SCC-25
Assay: In vitro survival assay (MTT) for anti-oral cavity cancer effects
Type: cell-based
Settings: Homo sapiens, SCC-25 cells, 48 hours treatment, absorbance 570 nm, read-out: IC50 (half inhibition concentration), survival of oral cavity cancer cells
Description: Inhibiting effects of oral cavity cancer cells by cyclohexenone compounds of Antrodia camphorata from example 1 were assessed according to the anticancer-drug screening model of National Cancer Institute (NCI). The compound 4-hydroxy-2,3-dimethoxy-6-methyl-5-(3,7,11-trimethyl-dodeca-2,6,10-trienyl)-cyclohex-2-enone from example 1 was added into the culture media of oral cavity cancer cell line SCC-25 to determine the survival rates. Survival of cell was analyzed using MTT assay. SCC-25 cell line was a human squamous cell carcinoma cell line.
MTT assay is commonly used to analyze cell proliferation, survival rate of viable cells and cytotoxicity. MTT (3[4,5-dimethylthiazol-2-yl]-2,5-diphenyltetrazolium bromide) is a yellow dye which can be converted to water-insoluble purple formazan on the reductive cleavage of its tetrazolium ring by the succinate tetrazolium reductase in mitochondria of cells. The amount of formazan produced is used to detect the number of viable cells and calculate the survival rates.
The SCC-25 cells were cultivated in DMEM/F12(1:1) medium supplemented with 10% fetal bovine serum and 400 ng/ml of hydrocortisone at 37° C., 5% CO2 for 24 hours. Proliferated cells were washed once with PBS, treated with 1× trypsin-EDTA, and centrifuged at 1200 rpm for 5 min. […] The absorbances were measured at 570 nm with an ELISA Reader to determine the survival rates.

COC1=C(OC)C(O)C(C/C=C(\C)CC/C=C(\C)CCC=C(C)C)C(C)C1=O (stereo not shown) [formula 2, 4-hydroxy-2,3-dimethoxy-6-methyl-5-(3,7,11-trimethyl-dodeca-2,6,10-trienyl)-cyclohex-2-enone]
IC50: 1.05 µg/mL

Source: patent US20110059122A1, “Inhibition of the Survival of Oral Cavity Cancer by Cyclohexenone Compounds from Antrodia Camphorata” (GOLDEN BIOTECHNOLOGY CORPORATION, priority 2009, published 2011)
